This passage reports GI50 results from patent US20240228458A1, “PYRIMIDINE DERIVATIVE HAVING PROTEIN KINASE INHIBITORY ACTIVITY, AND THERAPEUTIC PHARMACEUTICAL COMPOSITION COMPRISING SAME” (THERAPEX CO., LTD., priority 2021, published 2024).

Holding throughout (type): cell-based
Assay [1] has as its system Ba/F3 cells expressing EGFR-wt. Briefly: Growth inhibition (GI50) of Ba/F3 cells expressing EGFR-wt, Celltiter glo. The settings on record: Mus musculus, BaF3, 72 h. The essentials: (§1)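 Antiproliferative activity was assessed in EGFR-mutant or wild-type Ba/F3 cells over 72 h at 37 °C with 5% CO2. Cell viability was determined by CellTiter-Glo, and GI50 taken as the compound concentration inhibiting growth by 50%.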
In general terms: ATP-based viability assays read luminescence as a measure of living cells.

The subject of assay [2] is Ba/F3 cells expressing del19/T790M/C797S (EGFR-DTC). Briefly: Growth inhibition (GI50) of Ba/F3 cells expressing del19/T790M/C797S (EGFR-DTC), Celltiter glo. The settings on record: Mus musculus, BaF3, 72 h. The essentials:
as §1

The subject of assay [3] is Ba/F3 cells expressing L858R/T790M/C797S (EGFR-LTC). Briefly: Growth inhibition (GI50) of Ba/F3 cells expressing L858R/T790M/C797S (EGFR-LTC), Celltiter glo. The settings on record: Mus musculus, BaF3, 72 h. The essentials: as §1
Assay [4] has as its system Ba/F3 cells expressing del19/T790M (EGFR-DT). Briefly: Growth inhibition (GI50) of Ba/F3 cells expressing del19/T790M (EGFR-DT), Celltiter glo. The settings on record: Mus musculus, BaF3, 72 h. The essentials:
as §1

Assay [5] relates to Ba/F3 cells expressing L858R/T790M (EGFR-LT). The assay is described as follows: Growth inhibition (GI50) of Ba/F3 cells expressing L858R/T790M (EGFR-LT), Celltiter glo. The settings on record: Mus musculus, BaF3, 72 h. The procedure, abridged: as §1
The subject of a further assay is parental Ba/F3 cell line. The assay is described as follows: Growth inhibition (GI50) of the parental Ba/F3 cell line (not introduced with EGFR variants), Celltiter glo. The settings on record: Mus musculus, BaF3, 72 h, parental Ba/F3 cells. The procedure, abridged:
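Viable cell count by CellTiter-Glo after 72 h at 37 °C gave GI50 values (μM, 50% growth inhibition). Cells lacking EGFR variants were seeded at 100,000 cells/ml and dosed 4 h later with 4-fold serial dilutions from a 2 mM stock, 0.5% DMSO.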

The term GI50 denotes the concentration at which growth is held to half of that of the control. For the molecule `COc1ccc(NS(C)(=O)=O)c(Nc2nc(Nc3cc(C)c(N4CCC(N5CCN(C)CC5)CC4)cc3OC)ncc2Cl)c1` [Example 199, N-(2-((5-chloro-2-((2-methoxy-5-methyl-4-(4-(4-methylpiperazin-1-yl)piperidin-1-yl)phenyl)amino)pyrimidin-4-yl)amino)-4-methoxyphenyl)methanesulfonamide], the GI50 in assay [1] was in the range of 0.1 to 0.5 µM; in assay [2] it was 0.001 to 0.025 µM; in assay [3], 0.001 to 0.025 µM; in assay [4] it was 0.001 to 0.025 µM; in assay [5], 0.025 to 0.1 µM; in the assay with parental Ba/F3 cell line, 0.1 to 0.5 µM.

In the case of `COc1ccc(NS(C)(=O)=O)c(Nc2nc(Nc3cc(C)c(N4CCC(N5CCN(C)CC5)CC4)cc3Cl)ncc2Cl)c1` [Example 200, N-(2-((5-chloro-2-((2-chloro-5-methyl-4-(4-(4-methylpiperazin-1-yl)piperidin-1-yl)phenyl)amino)pyrimidin-4-yl)amino)-4-methoxyphenyl)methanesulfonamide], the GI50 in assay [1] was in the range of 0.1 to 0.5 µM; in assay [2], 0.025 to 0.1 µM; in assay [3], 0.025 to 0.1 µM; in assay [4] it was 0.001 to 0.025 µM; in assay [5] it was 0.025 to 0.1 µM; in the assay with parental Ba/F3 cell line, 0.1 to 0.5 µM.

Consider `COc1ccc(NS(C)(=O)=O)c(Nc2nc(Nc3cc(Cl)c(N4CCC(N5CCN(C)CC5)CC4)cc3OC)ncc2Cl)c1` [Example 201, N-(2-((5-chloro-2-((5-chloro-2-methoxy-4-(4-(4-methylpiperazin-1-yl)piperidin-1-yl)phenyl)amino)pyrimidin-4-yl)amino)-4-methoxyphenyl)methanesulfonamide], for which the concentration for 50% growth inhibition (GI50) in assay [1] was in the range of 0.001 to 0.025 µM; in assay [2] it was 0.001 to 0.025 µM; in assay [3], 0.001 to 0.025 µM; in assay [4], 0.001 to 0.025 µM; in assay [5], 0.001 to 0.025 µM; with parental Ba/F3 cell line, 0.025 to 0.1 µM.

For `COc1ccc(NS(C)(=O)=O)c(Nc2nc(Nc3cc(Cl)c(N4CCC(N5CCN(C)CC5)CC4)cc3Cl)ncc2Cl)c1` [Example 202, N-(2-((5-chloro-2-((2,5-dichloro-4-(4-(4-methylpiperazin-1-yl)piperidin-1-yl)phenyl)amino)pyrimidin-4-yl)amino)-4-methoxyphenyl)methanesulfonamide], the concentration for 50% growth inhibition (GI50) lay in the range of 0.1 to 0.5 µM in assay [1]; 0.025 to 0.1 µM in assay [2]; 0.025 to 0.1 µM in assay [3]; 0.001 to 0.025 µM in assay [4]; 0.025 to 0.1 µM in assay [5]; 0.1 to 0.5 µM in the assay on parental Ba/F3 cell line.

For the molecule `CCc1cc(Nc2ncc(Cl)c(Nc3cc(OC)ccc3NS(C)(=O)=O)n2)c(OC)cc1N1CCC(N2CCN(C)CC2)CC1` [Example 203, N-(2-((5-chloro-2-((5-ethyl-2-methoxy-4-(4-(4-methylpiperazin-1-yl)piperidin-1-yl)phenyl)amino)pyrimidin-4-yl)amino)-4-methoxyphenyl)methanesulfonamide], the GI50 in assay [1] is 0.5 to 2 µM; in assay [2] it was 0.025 to 0.1 µM; in assay [3] it was 0.025 to 0.1 µM; in assay [4], 0.001 to 0.025 µM; in assay [5], 0.1 to 0.5 µM; with parental Ba/F3 cell line it was 2 to 10 µM.

For `COc1ccc(NS(C)(=O)=O)c(Nc2nc(Nc3cc(C)c(N4CCC(N5CCCN(C)CC5)CC4)cc3OC)ncc2Cl)c1` [Example 204, N-(2-((5-chloro-2-((2-methoxy-5-methyl-4-(4-(4-methyl-1,4-diazepan-1-yl)piperidin-1-yl)phenyl)amino)pyrimidin-4-yl)amino)-4-methoxyphenyl)methanesulfonamide], the GI50 in assay [1] lay in the range of 0.025 to 0.1 µM; in assay [2], 0.001 to 0.025 µM; in assay [3], 0.025 to 0.1 µM; in assay [4] it was 0.001 to 0.025 µM; in assay [5], 0.025 to 0.1 µM; in the assay with parental Ba/F3 cell line, 2 to 10 µM.

For `CN1CCN(C2CCN(c3cc(Cl)c(Nc4ncc(Cl)c(Nc5cc6c(cc5NS(C)(=O)=O)CCO6)n4)cc3Cl)CC2)CC1` [Example 205, N-(6-((5-chloro-2-((2,5-dichloro-4-(4-(4-methylpiperazin-1-yl)piperidin-1-yl)phenyl)amino)pyrimidin-4-yl)amino)-2,3-dihydrobenzofuran-5-yl)methanesulfonamide], the GI50 in assay [1] was in the range of 0.025 to 0.1 µM; in assay [2] it was 0.001 to 0.025 µM; in assay [3] it was 0.001 to 0.025 µM; in assay [4] it was 0.001 to 0.025 µM; in assay [5] it was 0.001 to 0.025 µM; with parental Ba/F3 cell line, 2 to 10 µM.

`CCc1cc(Nc2ncc(Cl)c(Nc3cc4c(cc3NS(C)(=O)=O)CCO4)n2)c(OC)cc1N1CCC(N2CCN(C)CC2)CC1` [Example 206, N-(6-((5-chloro-2-((5-ethyl-2-methoxy-4-(4-(4-methylpiperazin-1-yl)piperidin-1-yl)phenyl)amino)pyrimidin-4-yl)amino)-2,3-dihydrobenzofuran-5-yl)methanesulfonamide]: the GI50 in assay [1] was 0.1 to 0.5 µM; in assay [2] it was 0.001 to 0.025 µM; in assay [3], 0.025 to 0.1 µM; in assay [4] it was 0.001 to 0.025 µM; in assay [5], 0.001 to 0.025 µM; with parental Ba/F3 cell line, 2 to 10 µM.

Turning to `COc1cc(N2CCC(N3CCNCC3)CC2)c(C)cc1Nc1ncc(Cl)c(Nc2cc3c(cc2NS(C)(=O)=O)CCO3)n1` [Example 207, N-(6-((5-chloro-2-((2-methoxy-5-methyl-4-(4-(piperazin-1-yl)piperidin-1-yl)phenyl)amino)pyrimidin-4-yl)amino)-2,3-dihydrobenzofuran-5-yl)methanesulfonamide], the GI50 lay in the range of 0.1 to 0.5 µM in assay [1]; 0.025 to 0.1 µM in assay [2]; 0.025 to 0.1 µM in assay [3]; 0.025 to 0.1 µM in assay [4]; 0.001 to 0.025 µM in assay [5]; 2 to 10 µM in the assay with parental Ba/F3 cell line.

As for `COc1cc(N2CCC(N3CCN(C4CC4)CC3)CC2)c(C)cc1Nc1ncc(Cl)c(Nc2cc3c(cc2NS(C)(=O)=O)CCO3)n1` [Example 208, N-(6-((5-chloro-2-((4-(4-(4-cyclopropylpiperazin-1-yl)piperidin-1-yl)-2-methoxy-5-methylphenyl)amino)pyrimidin-4-yl)amino)-2,3-dihydrobenzofuran-5-yl)methanesulfonamide], the GI50 was in the range of 0.1 to 0.5 µM in assay [1]; 0.001 to 0.025 µM in assay [2]; 0.025 to 0.1 µM in assay [3]; 0.001 to 0.025 µM in assay [4]; 0.001 to 0.025 µM in assay [5]; 2 to 10 µM with parental Ba/F3 cell line.

Regarding `COc1cc(N2CCC(N3CCC(N(C)C)C3)CC2)c(C)cc1Nc1ncc(Cl)c(Nc2cc3c(cc2NS(C)(=O)=O)CCO3)n1` (stereo not drawn) [Example 209, N-(6-((5-chloro-2-((4-(4-(3-(dimethylamino)pyrrolidin-1-yl)piperidin-1-yl)-2-methoxy-5-methylphenyl)amino)pyrimidin-4-yl)amino)-2,3-dihydrobenzofuran-5-yl)methanesulfonamide], the GI50 was 0.1 to 0.5 µM in assay [1]; 0.001 to 0.025 µM in assay [2]; 0.025 to 0.1 µM in assay [3]; 0.025 to 0.1 µM in assay [4]; 0.001 to 0.025 µM in assay [5]; 2 to 10 µM in the assay on parental Ba/F3 cell line.

`Cc1cc(Nc2ncc(Cl)c(Nc3cc4c(cc3NS(C)(=O)=O)CCO4)n2)c(Cl)cc1N1CCC(N2CCC(N(C)C)C2)CC1` (stereo not drawn) [Example 210, N-(6-((5-chloro-2-((2-chloro-4-(4-(3-(dimethylamino)pyrrolidin-1-yl)piperidin-1-yl)-5-methylphenyl)amino)pyrimidin-4-yl)amino)-2,3-dihydrobenzofuran-5-yl)methanesulfonamide]: the GI50 was in the range of 0.5 to 2 µM in assay [1]; 0.1 to 0.5 µM in assay [2]; 0.025 to 0.1 µM in assay [3]; 0.025 to 0.1 µM in assay [4]; 0.025 to 0.1 µM in assay [5]; 2 to 10 µM in the assay on parental Ba/F3 cell line.
